Assay results as given in patent publication US12264173B2 (GILEAD SCIENCES, INC., priority 2020, dated 2025).
Where two headings read alike, the source gives them in different places.

Columns and labels:
Assay type in all cases: cell-based
RSV A2 = assay: RSV NHBE EC50 (RSV A2 antiviral assay in NHBE cells); details: read-out: RSV NHBE EC50
Summary of the method: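 Luminescent ATP-based viability was recorded in RSV A2-infected normal human bronchial epithelial cells exposed to serially diluted compound (3-fold steps, 0.05% DMSO). Infection used 1×10^4.5 TCID/mL, with a 4-day incubation at 37° C.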

RSV strain A2 = assay: microbe, parasite or virus in culture; details: read-out: RSV HEp-2 EC50
Summary of the method: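 Cytopathic-effect protection assay: HEp-2 cells (50,000/mL) infected with pre-titered RSV A2 onto 3-fold serial compound dilutions, incubated 4 days at 37° C. Cell viability read by CellTiter-Glo luminescence; percent inhibition derived against 0% and 100% virus-inhibition controls.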

DENV2 replicon = assay: DENV-2 Huh-7 Rep EC50 (replicon luminescence)
Method: In 384 well plates (Greiner, Cat #781091), compounds were acoustically transferred at 200 nl per well in a 8 compound (4 replicates) or 40 compound dose response format (3 replicates). For all plates tested, Balapiravir, GS-5734 and NITD008 were included as positive inhibition controls alongside 0% inhibition, DMSO-only negative control wells. Following compound addition, Huh-7 cells containing the DENV2 replicon construct were harvested following standard cell culture procedures and were adjusted to a concentration of 1.25E5 cells/mL in cell culture media composed of cDMEM without genticin. 40 μL of the cell stock was then added to each well for a final cell density of 5,000 cells/well. Cell and compound mixtures were incubated at 37° C./5% CO2 for 48 hours. Prior to harvesting cells, EnduRen Live Cell Substrate (Promega, Cat #E6481) was prepared by suspending 3.4 mg into 100 uL of DMSO to generate a 60 mM stock solution. The stock solution was then diluted 1:200 in pre-warmed cDMEM and 10 uL of this diluted solution was added to each well of the 384 well plates. Plates were then centrifuged at 500 rpm briefly and were placed on a plate shaker for 2 min. Following mixing, plates were incubated at […] for 1.5 hours prior to measuring luminescence on an Envision luminometer.

[1] = human respiratory syncytial virus, NHBE, 96 h, Table 3, NHBE cells, RSV A2, 4 days
[2] = human respiratory syncytial virus, HEp-2, 96 h, Table 3, HEp-2 cells, RSV A2, 4 days
[3] = Dengue virus, DENV2, Huh-7, 48 h, read-out: DENV-2 REP Huh7 EC50
[4] = human respiratory syncytial virus, NHBE, Table 5 comparative activity, 2',3'-OH vs -OC(O)iPr
[5] = human respiratory syncytial virus, HEp-2, Table 5 comparative activity, 2',3'-OH vs -OC(O)iPr
[6] = Dengue virus, DENV2, Huh-7, read-out: DENV Rep EC50
[7] = Table 3, NHBE cells, RSV A2, 4 days
[8] = Table 3, HEp-2 cells, RSV A2, 4 days
[9] = Table 3, Huh-7 DENV2 replicon cells, 48 hours, read-out: DENV-2 REP Huh7 EC50

Structure (SMILES) | EC50 (RSV A2; [1]) | EC50 (RSV strain A2; [2]) | EC50 (DENV2 replicon; [3]) | EC50 (RSV A2; [4]) | EC50 (RSV strain A2; [5]) | EC50 (DENV2 replicon; [6]) | EC50 (RSV A2; [7]) | EC50 (RSV strain A2; [8]) | EC50 (DENV2 replicon; [9])
COC(=O)[C@H](C)N[P@](=O)(OC[C@@]1(C#N)O[C@@H](c2ccc3c(/N=C/N(C)C)ncnn23)[C@H](OC(=O)C(C)C)[C@@H]1OC(=O)C(C)C)Oc1ccccc1 [Example 260, (2R,3S,4S,5S)-2-Cyano-5-(4-(((E)-(dimethylamino)methylene)amino)pyrrolo[2,1-f][1,2,4]triazin-7-yl)-2-((((S)-(((S)-1-methoxy-1-oxopropan-2-yl)amino)(phenoxy)phosphoryl)oxy)methyl) tetrahydrofuran-3,4-diyl bis(2-methylpropanoate)] | 0.012 µM | 0.041 µM | 2.79 µM | – | – | – | – | – | –
CC(C)C(=O)O[C@H]1[C@H](c2ccc3c(N)ncnn23)O[C@](C#N)(COP(=O)(N[C@@H](C)C(=O)OCC2CCOCC2)Oc2ccccc2)[C@H]1OC(=O)C(C)C (mixture of isomers) [Example 181, (2R,3S,4S,5S)-5-(4-aminopyrrolo[2,1-f][1,2,4]triazin-7-yl)-2-cyano-2-((((((S)-1-oxo-1-((tetrahydro-2H-pyran-4-yl)methoxy)propan-2-yl)amino)(phenoxy)phosphoryl)oxy)methyl)tetrahydrofuran-3,4-diyl bis(2-methylpropanoate)] | 0.03 µM | 0.084 µM | 6.63 µM | 0.03 µM | 0.084 µM | 6.63 µM | – | – | –
CCC(=O)OC1[C@H](c2ccc3c(N)ncnn23)O[C@](C#N)(COP(=O)(N[C@@H](C)C(=O)OCC2CCN(CC(F)(F)F)CC2)Oc2ccccc2)[C@H]1OC(=O)CC (stereo in doubt) [Example 115, (2R,3S,4R,5S)-5-(4-aminopyrrolo[2,1-f][1,2,4]triazin-7-yl)-2-cyano-2-((((((S)-1-oxo-1-((1-(2,2,2-trifluoroethyl)piperidin-4-yl)methoxy)propan-2-yl)amino)(phenoxy)phosphoryl)oxy)methyl)tetrahydrofuran-3,4-diyl dipropionate] | 0.022 µM | 0.112 µM | 20.4 µM | – | – | – | – | – | –
CC(C)C(=O)O[C@H]1[C@H](c2ccc3c(N)ncnn23)O[C@](C#N)(COP(=O)(N[C@@H](C)C(=O)OC[C@H]2CC[C@H](N)CC2)Oc2ccccc2)[C@H]1OC(=O)C(C)C (stereo partly drawn) [Example 207, (2R,3S,4S,5S)-2-((((((S)-1-(((1r,4S)-4-aminocyclohexyl)methoxy)-1-oxopropan-2-yl)amino)(phenoxy)phosphoryl)oxy)methyl)-5-(4-aminopyrrolo[2,1-f][1,2,4]triazin-7-yl)-2-cyanotetrahydrofuran-3,4-diyl bis(2-methylpropanoate)] | 0.149 µM | 1.08 µM | > 37.5 µM | – | – | – | – | – | –
CC(=O)O[C@H]1[C@H](c2ccc3c(N)ncnn23)O[C@](C#N)(CO[P@](=O)(N[C@@H](C)C(=O)OCC2CC2)Oc2ccccc2)[C@H]1OC(C)=O [Example 103] | – | – | – | – | – | – | 0.032 µM | 0.094 µM | 10.5 µM
C[C@H](NP(=O)(OC[C@@]1(C#N)O[C@@H](c2ccc3c(N)ncnn23)[C@H](OC(=O)C(C)(C)C)[C@@H]1OC(=O)C(C)(C)C)Oc1ccccc1)C(=O)OC1CCOCC1 (single isomer, unassigned) [Example 172] | – | – | – | – | – | – | 0.145 µM | 1.1 µM | 16.8 µM
CC(C)C(=O)O[C@H]1[C@H](c2ccc3c(N)ncnn23)O[C@](C#N)(COP(=O)(N[C@@H](C)C(=O)OC2CCCC2)Oc2ccccc2)[C@H]1OC(=O)C(C)C (stereo partly drawn) [Example 254, (2R,3S,4S,5S)-5-(4-aminopyrrolo[2,1-f][1,2,4]triazin-7-yl)-2-cyano-2-((((((S)-1-(cyclopentyloxy)-1-oxopropan-2-yl)amino)(phenoxy)phosphoryl)oxy)methyl) tetrahydrofuran-3,4-diyl bis(2-methylpropanoate)] | 0.024 µM | 0.036 µM | 29.4 µM | – | – | – | – | – | –
CC(C)C(=O)O[C@H]1[C@H](c2ccc3c(N)ncnn23)O[C@](C#N)(COP(=O)(N[C@@H](C)C(=O)OCC(C)(C)O)Oc2ccccc2)[C@H]1OC(=O)C(C)C (single isomer, unassigned) [Example 257] | – | – | – | – | – | – | 0.024 µM | 0.072 µM | 7.47 µM
CC(=O)O[C@H]1[C@H](c2ccc3c(N)ncnn23)O[C@](C#N)(COP(=O)(N[C@@H](C)C(=O)OC2CCOCC2)Oc2ccccc2)[C@H]1OC(C)=O (single isomer, unassigned) [Example 164] | – | – | – | – | – | – | 0.148 µM | 1.69 µM | > 100 µM
CC(C)OC(=O)[C@H](C)NP(=O)(OC[C@@]1(C#N)O[C@@H](c2ccc3c(N)ncnn23)[C@H](OC(=O)C(C)C)[C@@H]1OC(=O)C(C)C)Oc1ccc(C(=O)N(C)C)cc1 (stereo partly drawn) [Example 177, (2R,3S,4S,5S)-5-(4-Aminopyrrolo[2,1-f][1,2,4]triazin-7-yl)-2-cyano-2-((((4-(dimethylcarbamoyl)phenoxy)(((S)-1-isopropoxy-1-oxopropan-2-yl)amino)phosphoryl)oxy)methyl)tetrahydrofuran-3,4-diyl bis(2-methylpropanoate)] | 0.049 µM | 0.12 µM | 27.2 µM | – | – | – | – | – | –
C[C@H](NP(=O)(OC[C@@]1(C#N)O[C@@H](c2ccc3c(N)ncnn23)[C@H](O)[C@@H]1O)Oc1ccccc1)C(=O)OCC1CCOCC1 (stereo partly drawn) [Example 20, (tetrahydro-2H-pyran-4-yl)methyl ((((2R,3S,4R,5S)-5-(4-aminopyrrolo[2,1-f][1,2,4]triazin-7-yl)-2-cyano-3,4-dihydroxytetrahydrofuran-2-yl)methoxy)(phenoxy)phosphoryl)-L-alaninate] | – | – | – | 2.23 µM | 0.877 µM | > 50 µM | – | – | –
CC(=O)O[C@H]1[C@H](c2ccc3c(N)ncnn23)O[C@](C#N)(CO[P@@](=O)(N[C@@H](C)C(=O)OCC2CCOCC2)Oc2ccccc2)[C@H]1OC(C)=O [Example 111] | – | – | – | – | – | – | 0.044 µM | 0.873 µM | > 100 µM
CC(=O)OC1[C@H](c2ccc3c(N)ncnn23)O[C@](C#N)(COP(=O)(N[C@@H](C)C(=O)OCC2CCC2)Oc2ccccc2)[C@H]1OC(C)=O (stereo in doubt) [Example 94, (2R,3S,4R,5S)-5-(4-aminopyrrolo[2,1-f][1,2,4]triazin-7-yl)-2-cyano-2-((((((S)-1-(cyclobutylmethoxy)-1-oxopropan-2-yl)amino)(phenoxy)phosphoryl)oxy)methyl) tetrahydrofuran-3,4-diyl diacetate] | 0.041 µM | 0.189 µM | 13.7 µM | – | – | – | – | – | –
CCC(=O)OC1[C@H](c2ccc3c(N)ncnn23)O[C@](C#N)(COP(=O)(N[C@@H](C)C(=O)OCC2CCC2)Oc2ccccc2)[C@H]1OC(=O)CC (stereo in doubt) [Example 91, (2R,3S,4R,5S)-5-(4-aminopyrrolo[2,1-f][1,2,4]triazin-7-yl)-2-cyano-2-((((((S)-1-(cyclobutylmethoxy)-1-oxopropan-2-yl)amino)(phenoxy)phosphoryl)oxy)methyl) tetrahydrofuran-3,4-diyl dipropionate] | 0.023 µM | 0.067 µM | 10.2 µM | – | – | – | – | – | –
CC(=O)OC1[C@H](c2ccc3c(N)ncnn23)O[C@](C#N)(COP(=O)(N[C@@H](C)C(=O)OCC2CC2)Oc2ccccc2)[C@H]1OC(C)=O (stereo in doubt) [Example 101, (2R,3S,4R,5S)-5-(4-aminopyrrolo[2,1-f][1,2,4]triazin-7-yl)-2-cyano-2-((((((S)-1-(cyclopropylmethoxy)-1-oxopropan-2-yl)amino)(phenoxy)phosphoryl)oxy)methyl) tetrahydrofuran-3,4-diyl diacetate] | 0.019 µM | 0.094 µM | 25.8 µM | – | – | – | – | – | –
